We go through four compounds from publication PMC10878032 (Molecular cancer therapeutics, 2023).

Where a SMILES comes first, the peptide text is derived from it. The star is where a group is joined. Cbz = O=C(OCc1ccccc1)*

The subject of series [1] is MCF-7 breast cancer cells. The series can be described thus: immunoblot of substrate acetylation in MCF-7 cells. It counts as cell-based, human. To be noted: SP-2-225 10 μmol/L, SAHA and SP-1–161 1 μmol/L, Western blot.
Series [2] has as its system bladder cancer. As to conditions: cited from earlier work.
Series [3] relates to MCF-7 cells. The experiment in a line: aggresome formation and immunostaining. The series is classed as cell-based, human. As to conditions: MCF-7, 24 hours; SP-2-225 10 μmol/L, MG-132 5 μmol/L.
For series [4] the following is noted: cited from earlier work.

For the compound `O=C(CCCCCCC(=O)Nc1ccccc1)NO` [SAHA, suberoylanilide hydroxamic acid], in series [1], the “acetylation of histone H3” value was “increased the acetylation of α-tubulin and histone H3”; the “acetylation of α-tubulin” value is on record as “increased the acetylation of α-tubulin”. Regarding `O=C(CCCCCCC(=O)Nc1ccc([C@H]2O[C@@H](CSc3nc(-c4ccccc4)c(-c4ccccc4)o3)C[C@@H](c3ccc(CO)cc3)O2)cc1)NO` [Tubacin], in series [2], the radiosensitization effect entry is recorded as “demonstrated radiosensitization effect”.

As to `CC(C)C[C@@H](C=O)NC(=O)[C@H](CC(C)C)NC(=O)[C@H](CC(C)C)NC(=O)OCc1ccccc1` [MG-132] (Cbz-Leu-Leu-Leu-aldehyde), in series [3], the aggresome formation result is reported as “significant aggresome formation”. `Cc1[nH]c2ccccc2c1CCNCc1ccc(/C=C/C(=O)NO)cc1` [LBH589]: the direct cytotoxic effect entry in series [4] is reported as “direct cytotoxic effect even at nanomolar concentrations”.
